According to PubChem BioAssay (NCI):
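Values below derive from 48-hour exposures of cells grown in 96-well plates, with endpoints linearly interpolated between the two concentrations bracketing the appropriate inhibition level. GI50 = concentration required for 50% inhibition of growth. The concentration for full growth arrest is given as TGI.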

Columns and labels:
Assay in all cases: DTP human tumour cell line panel, 48 h
SW-620 colon = system: SW-620 colon
COLO 205 colon = system: COLO 205 colon
MALME-3M melanoma = system: MALME-3M melanoma
HCT-116 colon = system: HCT-116 colon
HCT-15 colon = system: HCT-15 colon
MOLT-4 leukemia = system: MOLT-4 leukemia
IGROV1 ovarian = system: IGROV1 ovarian
NCI-H460 lung = system: NCI-H460 lung
OVCAR-5 ovarian = system: OVCAR-5 ovarian
TK-10 renal = system: TK-10 renal
SR leukemia = system: SR leukemia
LOX IMVI melanoma = system: LOX IMVI melanoma
MDA-N = system: MDA-N
OVCAR-8 ovarian = system: OVCAR-8 ovarian
MCF7 breast = system: MCF7 breast
HOP-62 NSCLC = system: HOP-62 NSCLC
SN12C renal = system: SN12C renal
RPMI-8226 leukemia = system: RPMI-8226 leukemia
HL-60(TB) leukemia = system: HL-60(TB) leukemia
A498 renal = system: A498 renal
SF-539 CNS = system: SF-539 CNS
KM12 colon = system: KM12 colon
MDA-MB-435 = system: MDA-MB-435
UACC-257 melanoma = system: UACC-257 melanoma
SK-OV-3 ovarian = system: SK-OV-3 ovarian
HT29 colon = system: HT29 colon
NCI-H226 lung = system: NCI-H226 lung
SK-MEL-28 melanoma = system: SK-MEL-28 melanoma
NCI/ADR-RES ovarian = system: NCI/ADR-RES ovarian
SF-295 CNS = system: SF-295 CNS
RXF 393 renal = system: RXF 393 renal
786-0 renal = system: 786-0 renal
SNB-75 CNS = system: SNB-75 CNS
UACC-62 melanoma = system: UACC-62 melanoma
NCI-H522 lung = system: NCI-H522 lung
DU-145 prostate = system: DU-145 prostate
ACHN renal = system: ACHN renal
SK-MEL-2 melanoma = system: SK-MEL-2 melanoma
A549 NSCLC = system: A549 NSCLC
EKVX NSCLC = system: EKVX NSCLC
SNB-19 CNS = system: SNB-19 CNS
UO-31 renal = system: UO-31 renal
HOP-92 NSCLC = system: HOP-92 NSCLC
NCI-H23 lung = system: NCI-H23 lung
SF-268 CNS = system: SF-268 CNS
PC-3 prostate = system: PC-3 prostate
T-47D breast = system: T-47D breast
MDA-MB-231 breast = system: MDA-MB-231 breast
M14 melanoma = system: M14 melanoma
CCRF-CEM leukemia = system: CCRF-CEM leukemia
BT-549 breast = system: BT-549 breast
HCC-2998 colon = system: HCC-2998 colon
OVCAR-4 ovarian = system: OVCAR-4 ovarian
U251 CNS = system: U251 CNS
OVCAR-3 ovarian = system: OVCAR-3 ovarian
K-562 leukemia = system: K-562 leukemia
HS 578T breast = system: HS 578T breast
SK-MEL-5 melanoma = system: SK-MEL-5 melanoma

COc1ccc(NC(=O)/C=C(C)/C=C/C=C(C)\C=C\C2=C(C)CCCC2(C)C)cc1
GI50 (SW-620 colon): 51.6 µM
TGI (SW-620 colon): > 100 µM
GI50 (COLO 205 colon): 75.9 µM
TGI (COLO 205 colon): > 100 µM
GI50 (MALME-3M melanoma): 41.2 µM
TGI (MALME-3M melanoma): > 100 µM
GI50 (HCT-116 colon): 28.6 µM
TGI (HCT-116 colon): > 100 µM
GI50 (HCT-15 colon): > 100 µM
TGI (HCT-15 colon): > 100 µM
GI50 (MOLT-4 leukemia): 55.1 µM
TGI (MOLT-4 leukemia): > 100 µM
GI50 (IGROV1 ovarian): 54.3 µM
TGI (IGROV1 ovarian): > 100 µM
GI50 (NCI-H460 lung): 84 µM
TGI (NCI-H460 lung): > 100 µM
GI50 (OVCAR-5 ovarian): > 100 µM
TGI (OVCAR-5 ovarian): > 100 µM
GI50 (TK-10 renal): > 100 µM
TGI (TK-10 renal): > 100 µM
GI50 (SR leukemia): 28.8 µM
TGI (SR leukemia): 80.8 µM
GI50 (LOX IMVI melanoma): 32 µM
TGI (LOX IMVI melanoma): > 100 µM
GI50 (MDA-N): 55.3 µM
TGI (MDA-N): > 100 µM
GI50 (OVCAR-8 ovarian): > 100 µM
TGI (OVCAR-8 ovarian): > 100 µM
GI50 (MCF7 breast): 40.3 µM
TGI (MCF7 breast): > 100 µM
GI50 (HOP-62 NSCLC): > 100 µM
TGI (HOP-62 NSCLC): > 100 µM
GI50 (SN12C renal): 97.3 µM
TGI (SN12C renal): > 100 µM
GI50 (RPMI-8226 leukemia): 1710 nM
TGI (RPMI-8226 leukemia): 64.4 µM
GI50 (HL-60(TB) leukemia): 2130 nM
TGI (HL-60(TB) leukemia): 16.1 µM
GI50 (A498 renal): > 100 µM
TGI (A498 renal): > 100 µM
GI50 (SF-539 CNS): 48.8 µM
TGI (SF-539 CNS): > 100 µM
GI50 (KM12 colon): 62.8 µM
TGI (KM12 colon): > 100 µM
GI50 (MDA-MB-435): 48.2 µM
TGI (MDA-MB-435): > 100 µM
GI50 (UACC-257 melanoma): 14.1 µM
TGI (UACC-257 melanoma): > 100 µM
GI50 (SK-OV-3 ovarian): > 100 µM
TGI (SK-OV-3 ovarian): > 100 µM
GI50 (HT29 colon): 41.2 µM
TGI (HT29 colon): > 100 µM
GI50 (NCI-H226 lung): > 100 µM
TGI (NCI-H226 lung): > 100 µM
GI50 (SK-MEL-28 melanoma): > 100 µM
TGI (SK-MEL-28 melanoma): > 100 µM
GI50 (NCI/ADR-RES ovarian): 60.6 µM
TGI (NCI/ADR-RES ovarian): > 100 µM
GI50 (SF-295 CNS): 35.7 µM
TGI (SF-295 CNS): > 100 µM
GI50 (RXF 393 renal): 25.5 µM
TGI (RXF 393 renal): 76.1 µM
GI50 (786-0 renal): 90.3 µM
TGI (786-0 renal): > 100 µM
GI50 (SNB-75 CNS): 2150 nM
TGI (SNB-75 CNS): > 100 µM
GI50 (UACC-62 melanoma): 24.6 µM
TGI (UACC-62 melanoma): > 100 µM
GI50 (NCI-H522 lung): 28.2 µM
TGI (NCI-H522 lung): > 100 µM
GI50 (DU-145 prostate): > 100 µM
TGI (DU-145 prostate): > 100 µM
GI50 (ACHN renal): > 100 µM
TGI (ACHN renal): > 100 µM
GI50 (SK-MEL-2 melanoma): 72.4 µM
TGI (SK-MEL-2 melanoma): > 100 µM
GI50 (A549 NSCLC): 87.9 µM
TGI (A549 NSCLC): > 100 µM
GI50 (EKVX NSCLC): 79 µM
TGI (EKVX NSCLC): > 100 µM
GI50 (SNB-19 CNS): > 100 µM
TGI (SNB-19 CNS): > 100 µM
GI50 (UO-31 renal): > 100 µM
TGI (UO-31 renal): > 100 µM
TGI (HOP-92 NSCLC): 30.4 µM
GI50 (NCI-H23 lung): 30.1 µM
TGI (NCI-H23 lung): > 100 µM
GI50 (SF-268 CNS): > 100 µM
TGI (SF-268 CNS): > 100 µM
GI50 (PC-3 prostate): 72.6 µM
TGI (PC-3 prostate): > 100 µM
GI50 (T-47D breast): 3.79 µM
TGI (T-47D breast): 43.1 µM
GI50 (MDA-MB-231 breast): 5.21 µM
TGI (MDA-MB-231 breast): 59 µM
GI50 (M14 melanoma): > 100 µM
TGI (M14 melanoma): > 100 µM
GI50 (CCRF-CEM leukemia): 48 µM
TGI (CCRF-CEM leukemia): > 100 µM
GI50 (BT-549 breast): > 100 µM
TGI (BT-549 breast): > 100 µM
GI50 (HCC-2998 colon): > 100 µM
TGI (HCC-2998 colon): > 100 µM
GI50 (OVCAR-4 ovarian): 34.8 µM
TGI (OVCAR-4 ovarian): > 100 µM
GI50 (U251 CNS): > 100 µM
TGI (U251 CNS): > 100 µM
GI50 (OVCAR-3 ovarian): 70.4 µM
TGI (OVCAR-3 ovarian): > 100 µM
GI50 (K-562 leukemia): 30.3 µM
TGI (K-562 leukemia): > 100 µM
GI50 (HS 578T breast): 9.02 µM
TGI (HS 578T breast): 96.7 µM
GI50 (SK-MEL-5 melanoma): 40.9 µM
TGI (SK-MEL-5 melanoma): > 100 µM
